Results as given in patent US4287194A, “Compositions with potentiated hypotensive effects” (priority 1978, dated 1981).
Values joined by “and” are separate entries in the source; they are usually repeats but may differ in a detail not shown here. Equal entries are not always repeated.

Legend:
[1] = tested on: awake dogs with renal hypertension; assay: Hypotensive effect on awake dogs suffering from renal hypertension (Grollman operation); type: in vivo
Text: (2) Determination of the hypotensive effect on awake dogs suffering from renal hypertension

[2] = tested on: genetically hypertensive awake rats; assay: Hypotensive effect on awake rats suffering from genetic hypertension (method of Eaton, modified); type: in vivo, Wistar-Okamoto rats
[3] = Oral acute toxicity (LD50) of the individual components, one week observation; details: mouse, in vivo
Protocol: Based on the data given in points 1 and 2 above it can be stated that a considerable potentiating synergism appears with respect to the hypotensive effect when applying the compounds of formula (I) in combination with those of formula (V). In the following it was investigated whether this synergism also appears with respect to the toxicity. In the first test series the LD50 values of the individual components were determined on CFLP-mice. The compounds were administered orally, and the animals were kept under observation for one week. The LD50 values of the individual compounds are as follows: […]

[4] = Toxicity (mortality) of combinations: pre-treatment for one hour with 11,473 or 11,121, then pindolol; set-up: species or system CFLP-mice; details: mouse, in vivo, po
Protocol: Based on the data given in points 1 and 2 above it can be stated that a considerable potentiating synergism appears with respect to the hypotensive effect when applying the compounds of formula (I) in combination with those of formula (V). In the following it was investigated whether this synergism also appears with respect to the toxicity. In the first test series the LD50 values of the individual components were determined on CFLP-mice. The compounds were administered orally, and the animals were kept under observation for one week. The LD50 values of the individual compounds are as follows:
To determine the toxicity values of the combinations dosages calculated on the basis of the isobole construction principle were applied. The animals were pre-treated for one hour with various dosages of 11,473 or 11,121, and then varying dosages of pindolol were administered.

COC(=O)c1ccc(O)c(CON)c1.Cl [11,121, 2-hydroxy-5-carbomethoxy-benzyloxyamine hydrochloride]
Blood pressure after 1 hour ([1]; 5 mg/kg p.o.): 170.0 mmHg
Blood pressure after 2 hours ([1]; 5 mg/kg p.o.): 167.5 mmHg
Blood pressure after 3 hours ([1]; 5 mg/kg p.o.): 175.0 mmHg
Blood pressure after 4 hours ([1]; 5 mg/kg p.o.): 165.0 mmHg
Blood pressure after 5 hours ([1]; 5 mg/kg p.o.): 172.5 mmHg
Blood pressure after 24 hours ([1]; 5 mg/kg p.o.): 165.0 mmHg
Blood pressure, basal value ([1]; 5 mg/kg p.o.): 165.0 mmHg
Blood pressure after 2 hours ([2]; 50 mg/kg p.o.): 170.0 mmHg
Blood pressure after 5 hours ([2]; 50 mg/kg p.o.): 163.0 mmHg
Blood pressure after 24 hours ([2]; 50 mg/kg p.o.): 169.0 mmHg
Blood pressure, basal value ([2]; 50 mg/kg p.o., basal value): 168.2 mmHg
LD50 at 168 h ([3]; p.o., one week observation): 2900 mg/kg

Cl.NOCc1ccc([N+](=O)[O-])c(O)c1 [11,130, 3-hydroxy-4-nitro-benzyloxyamine hydrochloride]
Blood pressure after 2 hours ([2]; 20 mg/kg p.o.): 183.0 mmHg
Blood pressure after 5 hours ([2]; 20 mg/kg p.o.): 176.0 mmHg
Blood pressure after 24 hours ([2]; 20 mg/kg p.o.): 172.0 mmHg
Blood pressure, basal value ([2]; 20 mg/kg p.o., basal value): 174.0 mmHg

CCOC(=O)CC(C)=NNc1ccc(Cl)nn1 [11,473, N^1-(3-Chloro-6-pyridazinyl)-N^2-(1-carbethoxy-2-propylidene)-hydrazine]
Blood pressure after 2 hours ([2]; 10 mg/kg p.o.): 194.0 mmHg
Blood pressure after 5 hours ([2]; 10 mg/kg p.o.): 197.0 mmHg
Blood pressure after 24 hours ([2]; 10 mg/kg p.o.): 198.0 mmHg
Blood pressure, basal value ([2]; 10 mg/kg p.o., basal value): 195.0 mmHg
LD50 at 168 h ([3]; p.o., one week observation): 360 mg/kg

CC(C)NCC(O)COc1cccc2[nH]ccc12.Cl (stereo not drawn) [Pindolol, 1-(4-indolyloxy)-3-isopropylamino-2-propanol hydrochloride]
mortality ([4]; pindolol alone 60 mg/kg p.o.): 0%
mortality ([4]; pindolol alone 90 mg/kg p.o.): 0%
mortality ([4]; pindolol alone 135 mg/kg p.o.): 8%
mortality ([4]; pindolol alone 200 mg/kg p.o.): 16%
mortality ([4]; pindolol alone 300 mg/kg p.o.): 46%
mortality ([4]; pindolol alone 450 mg/kg p.o.): 75%
Blood pressure after 1 hour ([1]; 0.1 mg/kg p.o.): 133.3 mmHg
Blood pressure after 2 hours ([1]; 0.1 mg/kg p.o.): 133.3 mmHg
Blood pressure after 3 hours ([1]; 0.1 mg/kg p.o.): 153.0 mmHg
Blood pressure after 4 hours ([1]; 0.1 mg/kg p.o.): 156.7 mmHg
Blood pressure after 5 hours ([1]; 0.1 mg/kg p.o.): 160.0 mmHg
Blood pressure after 24 hours ([1]; 0.1 mg/kg p.o.): 153.3 mmHg
Blood pressure, basal value ([1]; 0.1 mg/kg p.o.): 156.7 mmHg
Blood pressure after 2 hours ([2]; 0.25 mg/kg p.o., hydrochloride): 180.8 mmHg and 181.6 mmHg
Blood pressure after 5 hours ([2]; 0.25 mg/kg p.o., hydrochloride): 164.9 mmHg and 168.8 mmHg
Blood pressure after 24 hours ([2]; 0.25 mg/kg p.o., hydrochloride): 183.4 mmHg and 188.8 mmHg
Blood pressure, basal value ([2]; 0.25 mg/kg p.o., basal value (before treatment), hydrochloride): 182.2 mmHg and 184.4 mmHg
Blood pressure after 2 hours ([2]; 0.5 mg/kg p.o., hydrochloride): 161.4 mmHg and 191.2 mmHg and 172.1 mmHg
Blood pressure after 5 hours ([2]; 0.5 mg/kg p.o., hydrochloride): 160.5 mmHg and 188.3 mmHg and 160.8 mmHg
Blood pressure after 24 hours ([2]; 0.5 mg/kg p.o., hydrochloride): 150.5 mmHg and 188.9 mmHg and 188.6 mmHg
Blood pressure, basal value ([2]; 0.5 mg/kg p.o., basal value, hydrochloride): 165.0 mmHg and 200.0 mmHg and 200.3 mmHg
Blood pressure after 2 hours ([2]; 1 mg/kg p.o.): 135.0 mmHg
Blood pressure after 5 hours ([2]; 1 mg/kg p.o.): 135.0 mmHg
Blood pressure after 24 hours ([2]; 1 mg/kg p.o.): 151.1 mmHg
Blood pressure, basal value ([2]; 1 mg/kg p.o., basal value): 164.4 mmHg
Blood pressure after 2 hours ([2]; 5 mg/kg p.o.): 154.5 mmHg
Blood pressure after 5 hours ([2]; 5 mg/kg p.o.): 124.5 mmHg
Blood pressure after 24 hours ([2]; 5 mg/kg p.o.): 161.0 mmHg
Blood pressure, basal value ([2]; 5 mg/kg p.o., basal value): 172.5 mmHg
ED30 ([2]; Rattus norvegicus, po, read-out: ED30% (dosage which decreases the blood pressure by 30% related to the value before treatment), p.o., given alone): ~5 mg/kg
ED30% (dosage which decreases the blood pressure by 30% related to the value before treatment) ([2]; p.o., given alone, hydrochloride): 5 mg/kg
LD50 at 168 h [3]: 300 mg/kg

CC(C)NCC(O)COc1cccc2ccccc12.Cl (stereo not drawn) [Propranolol, 1-(1-Naphthyloxy)-3-isopropylamino-2-propanol hydrochloride]
Blood pressure after 2 hours ([2]; 1 mg/kg p.o.): 170.0 mmHg
Blood pressure after 5 hours ([2]; 1 mg/kg p.o.): 168.7 mmHg
Blood pressure after 24 hours ([2]; 1 mg/kg p.o.): 157.5 mmHg
Blood pressure, basal value ([2]; 1 mg/kg p.o., basal value): 167.5 mmHg
Blood pressure after 2 hours ([2]; 5 mg/kg p.o.): 178.6 mmHg
Blood pressure after 5 hours ([2]; 5 mg/kg p.o.): 175.9 mmHg
Blood pressure after 24 hours ([2]; 5 mg/kg p.o.): 181.8 mmHg
Blood pressure, basal value ([2]; 5 mg/kg p.o., basal value): 186.4 mmHg
Blood pressure after 2 hours ([2]; 10 mg/kg p.o.): 170.0 mmHg
Blood pressure after 5 hours ([2]; 10 mg/kg p.o.): 148.3 mmHg
Blood pressure after 24 hours ([2]; 10 mg/kg p.o.): 163.7 mmHg
Blood pressure, basal value ([2]; 10 mg/kg p.o., basal value): 178.0 mmHg
ED15 ([2]; Rattus norvegicus, po): ~10 mg/kg
